The results in this text go back to patent publication US10159685B2, “Vascular calcification” (Cambridge Enterprise Limited, priority 2016, dated 2018).

Format in all cases: cell-based
The subject of data set [1] is human vascular smooth muscle cells (hVSMCs). Briefly: o-Cresolphthalein Ca2+ assay, hVSMC Ca/P calcification model (Examples 7-9). The note with it: for Inhibition of calcification, normalised results (FIG. 27) / Normalised calcium levels (mass of calcium per mass of protein, FIG. 22): hVSMCs, 8 days; for Inhibition of calcification, normalised results (FIG. 27): concentrations between 0.05 μM and 3 μM; for Extracellular matrix calcification (summary statement): bovine cell and human cell in vitro vascular calcification model; for Normalised calcium levels (mass of calcium per mass of protein, FIG. 22): 3 μM. On the procedure: Primary hVSMCs were cultured in M199 media containing FBS (M199/5% FBS). They were plated at a known cell density, allowed to grow for 24 hours and then treated with control (DMSO only) or calcification media (DMSO containing 2.7 mM Calcium+2.5 mM phosphate)+/−inhibitors. After 6 days, calcification was assessed using the o-Cresolphthalein assay for quantification of Ca^2+ deposition and a BioRad protein assay for protein content.
Medium+/−inhibitors was exchanged every 2-3 days.
Primary hVSMCs were cultured in M199 media containing FBS (M199/5% FBS). They were plated at a known cell density, allowed to grow for 24 hours and then treated with control (DMSO only) or calcification media (DMSO containing 2.7 mM Calcium+2.5 mM phosphate)+/−inhibitors. After 8 days, calcification was assessed using o-Cresolphthalein assay for quantification of Ca^2+ deposition and a BioRad protein assay for protein content.
All of the compounds tested were used at a concentration of 3 μM. Medium+/−inhibitors was exchanged every 2-3 days.
Primary hVSMCs were cultured in M199 media containing FBS (M199/5% FBS). They were plated at a known cell density, allowed to grow for 24 hours and then treated with control (DMSO only) or calcification media (DMSO containing 2.7 mM Calcium+2.5 mM phosphate)+/−compounds. After 8 days, calcification was assessed using o-Cresolphthalein assay for quantification of Ca^2+ deposition and a BioRad protein assay for protein content.
These concentrations were chosen to mimic the systemic concentrations of these drugs following patient dosing according to the dose schedule in the prescribing information for each drug. Medium+/−inhibitors was exchanged every 2-3 days.

Data set [2] relates to bovine vascular smooth muscle cells (bVSMCs). The settings on record: 7 days; for Cell viability of bVSMCs after seven days (MTT signal, relative to control): mean of three experiments; for Toxicity to bVSMCs (MTT assay, in words): at the concentrations tested (0.5 to 100 μM). As to the method:
The toxicity of the identified compounds to bovine VSMCs was measured using the MTT assay, which measures the activity of dehydrogenase enzymes of live cells. This assay can pick up both cell death and proliferation.
Bovine VSMCs were seeded in 96 well plates and cultured in M199/20% FCS for 1 day. Then, the cells were incubated with inhibitor concentrations from 0.5 to 100 μM (in M199 medium+5% FBS). The cells were incubated with the inhibitors for 7 days; every 2-3 days the medium −/+inhibitors was exchanged. Then, the MTT assay was performed. The stock vehicle DMSO was tested at corresponding concentrations to the inhibitors at 0.1% DMSO or less.
(In general: Tetrazolium assays rely on reduction of a dye to a coloured formazan, in cell work by metabolically active cells.)

Data set [3] concerns human monocyte-macrophages (HMMs). The data set can be described thus: MTT toxicity assay, HMMs, seven days (Example 3). The settings on record: 7 days; for Cell viability by MTT, percent of control: mean of three experiments; for Toxicity to HMMs (in words): at a concentration of 100 μM.
Method: A similar set of toxicity experiments was performed with human monocyte-macrophages (HMMs).
Data set [4] deals with bovine vascular smooth muscle cells (bVSMCs). Briefly: o-Cresolphthalein Ca2+ assay, bVSMC GAD calcification model (Examples 4 and 5). The settings on record: GAD-treated bVSMCs, 10 μM, 7 d. On the procedure:
For the bVSMCs a GAD medium (10 mM β-glycerophosphate/0.1 mM L-ascorbic acid-2-phosphate/10 nM dexamethasone) model was used to induce mineralization in bVSMCs. Accordingly, cells were seeded in tissue culture plates using M199/20% FCS culture medium and cultured overnight. The next day, cells were treated either with medium only (M199/5% FBS)+/−inhibitors, or with the GAD-medium (10 mM β-glycerophosphate/0.1 mM L-ascorbic acid-2-phosphate/[…] dexamethasone)+/−inhibitors.
Medium+/−inhibitors was exchanged every 2-3 days. […]
The o-Cresolphthalein assay is a spectrophotometric method for measuring Ca^2+-concentrations in cell/tissue lysates. Following the calcification experiments, cells are briefly washed to remove medium and 100 […]1 of 0.1 N HCl is added to each well to dissolve any mineral deposits. Then, the Ca^2+-concentration of the samples is measured spectrophotometrically (at 570 nm) in the o-cresolphthalein assay with the help of a CaCl2 standard curve in a concentration range of ˜0.02-270 µg Ca^2+/ml.
The commercial BioRad DC protein assay is based on the Lowry method, aka reaction of proteins with a copper-tartrate complex and subsequent reaction with Folin's reagent. Following the calcification experiment, cells are briefly washed to remove medium and 100 µl of solubilisation solution (0.1 M NaOH/1% SDS/DIW) is added to each well to lyse the cells. The protein concentrations of the lysates are subsequently determined in the BioRad DC assay as per supplier's instructions using BSA (bovine serum albumin) as standard.
The in vitro model is the same as the model used in example 4; bovine vascular smooth muscle cells (bVSMCs) cultured so that they produce extracellular matrix, with the addition of the GAD medium (10 mM β-glycerophosphate/0.1 mM L-ascorbic acid-2-phosphate/10 nM dexamethasone).
As above, cells were treated either with medium only (“no-additions”; NA)+/−inhibitors, or with the GAD-medium+/−inhibitors. The inhibitors used were PJ34 and minocyclin (MC) at 10 μM, 1 μM and 0.1 μM.
The methodology was the same as that described in example 4.

Where two headings read alike, the source gives them in different places. Marks after values point to notes of the source that are not given here.

For `CCCCc1nc(Cl)c(CO)n1Cc1ccc(-c2ccccc2-c2nn[nH]n2)cc1` [losartan], the “Inhibition of calcification, normalised results (FIG. 27)” value in data set [1] was “do not inhibit medial vascular calcification”.
`COc1ccccc1Oc1c(NS(=O)(=O)c2ccc(C(C)(C)C)cc2)nc(-c2ncccn2)nc1OCCO` [bosentan MH, Bosentan monohydrate]: the “Cell viability of bVSMCs after seven days (MTT signal, relative to control)” value in data set [2] (0.5 uM) is on record as 101.97; in data set [2] (1 uM), 96.12; in data set [2] (2 uM), 91.91*; in data set [2] (5 uM), 93.05*; in data set [2] (10 uM), 93.87*; in data set [2] (20 uM) it was 97.20. Moreover, the “Cell viability of bVSMCs after seven days (MTT signal, relative to control)” value in data set [2] (50 uM) is listed as 103.69; in data set [2] (100 uM) it was 85.05*. The “Toxicity to bVSMCs (MTT assay, in words)” value in data set [2] is “little toxicity”. Further, the “Cell viability by MTT, percent of control” value was found to be 91.59 in data set [3] (0.5 uM); 99.82 in data set [3] (1 uM); 97.16 in data set [3] (2 uM); 84.90 in data set [3] (5 uM); 79.36 in data set [3] (10 uM); 83.25 in data set [3] (20 uM). The “Cell viability by MTT, percent of control” value in data set [3] (50 uM) is on record as 73.65; in data set [3] (100 uM), 64.97*. Also, the “Toxicity to HMMs (in words)” value in data set [3] is listed as “most toxic”. Besides, in data set [4], the “Calcium levels (mass of calcium, FIG. 7B) compared to no inhibitors” value is “no effect”. The “Normalised calcium levels (mass of calcium per mass of protein, FIG. 9B)” value in data set [4] is “slightly lower calcium levels”. Moreover, the “Inhibition of calcification, normalised results (FIG. 27)” value in data set [1] is recorded as “do not inhibit calcification”.
On to `COc1ccc([C@@H]2Sc3ccccc3N(CCN(C)C)C(=O)[C@@H]2OC(C)=O)cc1` [Diltiazem, diltiazem], for which the “Cell viability of bVSMCs after seven days (MTT signal, relative to control)” value is recorded as 98.78 in data set [2] (0.5 uM); 96.07 in data set [2] (1 uM); 89.48* in data set [2] (2 uM); 91.88* in data set [2] (5 uM); 94.54 in data set [2] (10 uM); 113.60* in data set [2] (20 uM). Moreover, the “Cell viability of bVSMCs after seven days (MTT signal, relative to control)” value in data set [2] (50 uM) was 143.28*; in data set [2] (100 uM), 119.64*. Also, in data set [2] (at 20 μM and above), the “Stimulatory effect on bVSMCs (MTT assay)” value was “stimulatory effect”. Further, the “Toxicity to bVSMCs (MTT assay, in words)” value in data set [2] was “non-toxic”. Besides, the “Cell viability by MTT, percent of control” value in data set [3] (0.5 uM) turned out to be 97.10; in data set [3] (1 uM) it was 104.94; in data set [3] (2 uM), 99.61; in data set [3] (5 uM), 91.09; in data set [3] (10 uM) it was 92.45; in data set [3] (20 uM), 100.42. The “Cell viability by MTT, percent of control” value in data set [3] (50 uM) is given as 92.16; in data set [3] (100 uM), 53.65*. For the same compound, the “Toxicity to HMMs (in words)” value in data set [3] is on record as “most toxic”. Further, the “Calcium levels (mass of calcium, FIG. 7B) compared to no inhibitors” value in data set [4] was “lower calcium levels”. Also, the “Normalised calcium levels (mass of calcium per mass of protein, FIG. 9B)” value in data set [4] was “slightly lower calcium levels”.
On to `NC(=O)c1cccc2cn(-c3ccc([C@@H]4CCCNC4)cc3)nc12` [niraparib], for which, in data set [1], the “Extracellular matrix calcification (summary statement)” value (“Extracellular matrix calcification” for short) is recorded as “significantly reduce extracellular matrix calcification” and the “Normalised calcium levels (mass of calcium per mass of protein, FIG. 22)” value is listed as “particularly effective”.
`C[C@]1(c2nc3c(C(N)=O)cccc3[nH]2)CCCN1` [veliparib]: in data set [1], the “Extracellular matrix calcification” value is given as “significantly reduce extracellular matrix calcification”; the “Normalised calcium levels (mass of calcium per mass of protein, FIG. 22)” value was “particularly effective”; the “Inhibition of calcification, normalised results (FIG. 27)” value is “inhibit calcification significantly and repeatedly”.
Consider `O=C(c1cc(Cc2n[nH]c(=O)c3ccccc23)ccc1F)N1CCN(C(=O)C2CC2)CC1` [olaparib], for which the “Extracellular matrix calcification” value in data set [1] is “significantly reduce extracellular matrix calcification”.
For the compound `O=C1NCCc2c(OCCCCN3CCCCC3)cccc21` [DPQ, 3,4-dihydro-5-[4-(1-piperidinyl)butoxyl]-1(2H)-isoquinolinone], the “Cell viability of bVSMCs after seven days (MTT signal, relative to control)” value in data set [2] (0.5 uM) is on record as 100.30; in data set [2] (1 uM), 101.78; in data set [2] (2 uM), 92.11*; in data set [2] (5 uM) it was 94.96; in data set [2] (10 uM) it was 92.58*; in data set [2] (20 uM) it was 94.24*. Also, the “Cell viability of bVSMCs after seven days (MTT signal, relative to control)” value is 89.46* in data set [2] (50 uM) and 89.87* in data set [2] (100 uM). The “Toxicity to bVSMCs (MTT assay, in words)” value in data set [2] is “virtually non-toxic”. The “Cell viability by MTT, percent of control” value is recorded as 106.61 in data set [3] (0.5 uM); 88.68 in data set [3] (1 uM); 89.59 in data set [3] (2 uM); 95.11 in data set [3] (5 uM); 91.82 in data set [3] (10 uM); 91.99 in data set [3] (20 uM). Further, the results for the “Cell viability by MTT, percent of control” value in data set [3] (50 uM) and in data set [3] (100 uM) were 86.74 and 90.94, respectively. In addition, in data set [3], the “Toxicity to HMMs (in words)” value is “relatively innocuous”.
Regarding `CNCc1ccc(-c2[nH]c3cc(F)cc4c3c2CCNC4=O)cc1` [rucaparib], in data set [1], the “Extracellular matrix calcification” value was “significantly reduce extracellular matrix calcification” and the “Normalised calcium levels (mass of calcium per mass of protein, FIG. 22)” value was “particularly effective”.
Take `Cn1ncnc1[C@H]1c2n[nH]c(=O)c3cc(F)cc(c23)N[C@@H]1c1ccc(F)cc1` [talazoparib]: the “Extracellular matrix calcification” value in data set [1] was “significantly reduce extracellular matrix calcification”.
For `CC(C)c1c(C(=O)Nc2ccccc2)c(-c2ccccc2)c(-c2ccc(F)cc2)n1CC[C@@H](O)C[C@@H](O)CC(=O)O` [atorvastatin], the “Inhibition of calcification, normalised results (FIG. 27)” value in data set [1] is recorded as “do not inhibit medial vascular calcification”.
